US20120315654A1, “COMPOSITIONS AND METHODS FOR DETECTING CARDIOTOXICITY” (DUKE UNIVERSITY, priority 2011, published 2012)

Experiments:
HL-1 cells = experiment: LDH release cytotoxicity assay in HL-1 cells; format: cell-based, murine
Experimental: Toxicity was assessed by quantifying the amount of lactate dehydrogenase (LDH) present in the culture media using PROMEGA's CYTOTOX96 NON-RADIOACTIVE ASSAY (PROMEGA, Madison, Wis.). Maximum cytotoxicity was determined by measuring the amount of LDH released in cells incubated with the kit's lysis buffer. The percentage of LDH released after DOX treatment was compared with that of controls.

RNCM = experiment: Caspase 3/7 apoptosis assay in RNCM; format: cell-based, rat; settings: 100 nmol/L DOX, up to 48 hrs
Experimental: Apoptosis was measured using PROMEGA's CASPASE-GLO 3/7 ASSAY SYSTEM (PROMEGA). Briefly, attached cells in a single 24-well plate were washed 3 times with ice-cold PBS and resuspended in 500 μl of 1% TRITON-X100; 10% glycerol; 2 mmol/L EDTA; 137 mmol/L NaCl; and 20 mmol/L Tris, pH 8.0. A mixture of 25 μL of lysate and 25 μL of caspase 3/7-assay reagent was prepared, and sequential luminescent readings were taken every 15 min for 4 hrs. Peak signal readings were normalized to protein content and plotted.

cell-surface CrT protein = experiment: Cell-surface CrT protein by biotin labeling, avidin isolation and Western blot (4B9); format: cell-based, human; settings: HL-1 cultures, 100 nmol/L DOX
Experimental: HL-1 cells expressing CrT protein were lysed in an ice-cold solution of 150 mmol/L NaCl; 1% Triton X-100; and 50 mmol/L Tris-HCl, pH 7.4, supplemented with protease (COMPLETE MINI protease inhibitors, ROCHE, Indianapolis, Ind.) and phosphatase inhibitors (5 mmol/L NaF; 1 mmol/L phenylmethylsulphonylfluoride; 2.5 mmol/L Na2P2O7; 50 mmol/L β-glycerol; and 1 mmol/L […], Sigma). Insoluble material was separated by centrifugation at 100,000×g for 30 min at 4° C. Solubilized protein (25 μg per lane) was mixed with Laemmli buffer containing 10% β-mercaptoethanol, separated by SDS-PAGE on a 7% gel for studies of the CrT, and then transferred to nitrocellulose membranes. […] The TATA box-binding protein band was used as a loading control and was detected using a mouse monoclonal antibody (ABCAM, Cambridge, Mass.). […] Protein abundance was quantitated by densitometry using the IMAGEJ application from NIH, and normalized to the signal obtained from CrT protein isolated from cells grown in normal culture media.
HL-1 cultures were grown in 75 cm^2 plates and transiently transfected as described for human CrT cDNA. […] Cell surface CrT protein fraction (biotinylated CrT) was then analyzed by Western blotting using an anti-CrT antibody as described above.

**Q.** For `COc1cccc2c1C(=O)c1c(O)c3c(c(O)c1C2=O)C[C@@](O)(C(=O)CO)C[C@@H]3O[C@H]1C[C@H](N)[C@H](O)[C@H](C)O1` [DOX, Doxorubicin], which LDH release (HL-1 cells; HL-1, 50 nmol/L DOX, through 48 hrs) is on record?
**A.** Its LDH release is “not significantly elevated”.

**Q.** And the “Increase in LDH release compared with controls” value (HL-1 cells; HL-1, 100 nmol/L DOX, 24 hrs)?
**A.** Its value is “approximately 10%”.

**Q.** What about the “Apoptosis (caspase 3/7 activation)” value (RNCM) of the same compound?
**A.** Its value is “No increase”.

**Q.** And the “Amount of CrT at the cell surface” value (cell-surface CrT protein)?
**A.** The value was “decreased”.
